Source: US10422787B2, “System and method for single molecule detection” (ARIZONA BOARD OF REGENTS on behalf of ARIZONA STATE …, priority 2015, dated 2019)
[ ]: non-standard residue; d: D form.

How the values were obtained:
Type in all cases: binding
α4β1 = target: T1, α4β1 (Homo sapiens, UniProt P05556+P13612); experiment: STM break-junction, effect of electrode modification (ligand) on frequency of large current events
T1 construct: purchased R&D Systems (Bio-Techne)

αvβ3 = target: T2, αvβ3 (Homo sapiens, UniProt P05106+P06756); experiment: as above
T2 construct: the αVβ3 extracelluar domain of human integrin; purchased YO Proteins AB
T2 sequence (P06756 31-992 limits assumed): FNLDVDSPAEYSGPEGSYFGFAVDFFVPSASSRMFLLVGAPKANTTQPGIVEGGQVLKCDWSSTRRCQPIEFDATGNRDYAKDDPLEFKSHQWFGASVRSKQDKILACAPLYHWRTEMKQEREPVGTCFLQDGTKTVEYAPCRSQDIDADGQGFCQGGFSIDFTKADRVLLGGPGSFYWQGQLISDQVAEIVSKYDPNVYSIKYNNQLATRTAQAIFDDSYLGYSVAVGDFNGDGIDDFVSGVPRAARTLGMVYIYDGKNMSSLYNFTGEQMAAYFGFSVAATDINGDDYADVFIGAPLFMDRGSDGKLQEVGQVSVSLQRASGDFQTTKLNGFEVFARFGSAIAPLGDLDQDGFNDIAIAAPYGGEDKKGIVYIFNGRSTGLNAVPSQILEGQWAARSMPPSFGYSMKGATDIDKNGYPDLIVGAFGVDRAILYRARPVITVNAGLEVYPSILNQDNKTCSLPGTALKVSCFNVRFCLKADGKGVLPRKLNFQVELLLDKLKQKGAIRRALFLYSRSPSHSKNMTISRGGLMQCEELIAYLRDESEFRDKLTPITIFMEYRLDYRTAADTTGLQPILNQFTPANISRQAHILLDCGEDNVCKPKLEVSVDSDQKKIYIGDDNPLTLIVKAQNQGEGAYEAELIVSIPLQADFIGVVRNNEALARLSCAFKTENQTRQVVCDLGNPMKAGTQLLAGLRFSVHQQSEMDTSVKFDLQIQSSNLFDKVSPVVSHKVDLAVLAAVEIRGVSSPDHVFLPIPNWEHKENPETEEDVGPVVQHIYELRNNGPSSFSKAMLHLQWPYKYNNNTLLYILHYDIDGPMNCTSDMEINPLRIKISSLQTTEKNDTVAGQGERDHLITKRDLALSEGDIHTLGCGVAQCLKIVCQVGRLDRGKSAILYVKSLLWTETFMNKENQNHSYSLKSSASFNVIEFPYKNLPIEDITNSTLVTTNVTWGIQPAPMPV
T2 sequence (P05106 27-718 limits assumed): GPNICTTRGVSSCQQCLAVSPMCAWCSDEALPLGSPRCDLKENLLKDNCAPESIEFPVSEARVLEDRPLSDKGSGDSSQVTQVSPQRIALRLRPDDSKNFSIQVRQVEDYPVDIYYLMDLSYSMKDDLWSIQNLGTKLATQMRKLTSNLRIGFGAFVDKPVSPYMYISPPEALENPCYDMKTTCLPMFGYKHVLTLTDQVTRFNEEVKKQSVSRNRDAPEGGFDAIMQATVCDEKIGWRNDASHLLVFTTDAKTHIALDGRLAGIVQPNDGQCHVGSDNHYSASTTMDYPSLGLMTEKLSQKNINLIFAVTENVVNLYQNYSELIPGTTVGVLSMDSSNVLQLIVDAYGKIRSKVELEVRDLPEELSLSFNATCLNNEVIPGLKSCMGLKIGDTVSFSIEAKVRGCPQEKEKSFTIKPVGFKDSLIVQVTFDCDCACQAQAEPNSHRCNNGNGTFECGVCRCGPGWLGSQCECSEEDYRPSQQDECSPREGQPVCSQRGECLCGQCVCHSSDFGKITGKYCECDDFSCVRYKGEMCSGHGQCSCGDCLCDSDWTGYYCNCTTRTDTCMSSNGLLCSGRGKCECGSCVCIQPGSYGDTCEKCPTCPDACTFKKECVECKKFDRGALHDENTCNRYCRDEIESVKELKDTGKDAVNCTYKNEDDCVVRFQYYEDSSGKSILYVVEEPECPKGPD
Excerpt: The molecular specificity of the αVβ3-RGD binding was investigated by comparing the selectivity of RGD functionalized surfaces with the selectivity of surfaces functionalized with cyclic RGE, a cyclic peptide of the same charge (RGD, pI=6.09; RGE pI=6.18) and differing by only one carbon atom. The effects of functionalizing only the probe or substrate were also investigated. The results of these experiments are summarized in Table 2 (no events were observed without functionalization). […] It can be concluded that one chemical contact is required for the high conductance to be observed, and that the specificity and frequency of events increases with the chemical specificity of the contact. In addition, specific binding results in larger current peaks at larger retraction distances than obtained with less-specific binding.
RGE is a cyclic peptide differing from RGD by only one carbon atom.
Functionalizing STM probes and substrates: The STM probes were etched from a 0.25 mm Pd wire (California Fine Wires) by an AC electrochemical etching method, and then insulated with high-density polyethylene, leaving an open apex of a few tens of nanometers in diameter. Before use, the probes were tested in 1 mM phosphate buffer (pH=7.4) at 0.5 V bias to ensure that the leakage current was <1 pA. For functionalization, the probe was gently cleaned using ethanol and water, respectively, and then dried with nitrogen flow. The probe was immersed in a 0.5 mg/mL peptide solution for ˜20 h. After that, the probe was taken out, rinsed with water, dried with nitrogen gas, and used immediately. Palladium substrates were prepared by depositing a 100 nm palladium film onto a 10 nm titanium adhesion layer coated onto a 750 μm thick silicon wafer using an electron-beam evaporator (Lesker PVD 75). The substrate was annealed with a hydrogen flame immediately before being functionalized by the same method as that for probe. Fourier transform infrared (FTIR) spectroscopy was used to characterize the functionalization. Pd substrates were also treated by UV- Ozone cleaner and H2 gas reduction (to remove PdO).
Preparation of RGD and RGE: RGD peptide, cyclo(Arg-Gly-Asp-D-Phe-Cys), was obtained from Peptides International (Louisville, Ky.). RGE peptide, cyclo(Arg-Gly-Glu-D-Phe-Cys), was synthesized by CPC Scientific (Sunnyvale, Calif.) with a purity>95%. For chip and STM tip functionalization, peptides were dissolved to a final concentration of 0.5 mg/mL in a freshly degassed 1 mM phosphate buffer (pH=7.4), which was prepared using water from a Milli-Q system with a resistance of ˜18 MΩ and a total organic carbon contamination below 4 ppb.
STM Measurements: Break junction measurements were carried out with a PicoSPM scanning probe microscope (Agilent Technologies). The Teflon liquid cells were cleaned in Piranha solution and then sonicated in Milli-Q water three times (Note that: the Piranha is highly corrosive and must be handled with extreme care). The current set point was 4 pA. Different sample bias was applied to the substrate as required. For better surface charge control, an Ag/AgCl with a salt bridge (10 mM KCl) was connected to the substrate. The tip was approached to the substrate with an integral and proportional gain of 1.0 and then left to stabilize for 0.5 h. For break junction measurements, the tip was first brought into the set point position. After 5 s of waiting, the tip was retracted 10 nm from the substrate with a speed of 0.17 nm/s, during which a current-distance trace was recorded. Subsequently, the tip was re-engaged and the retraction process repeated. About one hundred traces were collected for each experiment and at least three independent experiments were conducted for each sample (using a different substrate and tip each time).

αVβ3 integrin = αVβ3 integrin (Homo sapiens, UniProt P05106+P06756); experiment: Capture of αVβ3 integrin by cyclic RGD peptide in junction device
αVβ3 integrin, sequence (P06756 31-992 limits assumed): as the sequence (P06756 31-992 limits assumed) above
αVβ3 integrin, sequence (P05106 27-718 limits assumed): as the sequence (P05106 27-718 limits assumed) above
Excerpt: In experiments, the concentration used to obtain signals with the single molecule capture device had to be quite high (i.e., nanomolar or higher) in order for the probability of capturing a single molecule in a reasonable time to be significant. In some embodiments, this probability is proportional to the volume from which molecules can be captured in a reasonable time. For example, if the molecules diffuse freely with a diffusion constant D (e.g., about 10^−11 m^2/s), then the volume from which molecules can be collected in a time t, over a linear junction length L, is given approximately by πr^2L where r^2=Dt. Taking t=60 s and L=36 nm (approximately the length of the junction around the edge of a 12 nm diameter pore), about 40 molecules would be present at 1 nM concentration in the resulting volume of 6.5×10^−17 m^3 (=6.5×10^−14 liters). […] Thus, for a device with X=10 μm, the capture volume in 1 minute capture time becomes 10^−14 m^3 or almost 100× greater. In fact, upon the solution being flowed over the device, the effective capture length is orders of magnitude greater. […] Thus, if about a linear cm of fluid is flowed past a junction slowly enough that each volume of length equal to the junction length spends about a minute over the junction, then concentrations as small as a femtomole will yield a signal.

T1 sequence (P13612 34-977 limits assumed): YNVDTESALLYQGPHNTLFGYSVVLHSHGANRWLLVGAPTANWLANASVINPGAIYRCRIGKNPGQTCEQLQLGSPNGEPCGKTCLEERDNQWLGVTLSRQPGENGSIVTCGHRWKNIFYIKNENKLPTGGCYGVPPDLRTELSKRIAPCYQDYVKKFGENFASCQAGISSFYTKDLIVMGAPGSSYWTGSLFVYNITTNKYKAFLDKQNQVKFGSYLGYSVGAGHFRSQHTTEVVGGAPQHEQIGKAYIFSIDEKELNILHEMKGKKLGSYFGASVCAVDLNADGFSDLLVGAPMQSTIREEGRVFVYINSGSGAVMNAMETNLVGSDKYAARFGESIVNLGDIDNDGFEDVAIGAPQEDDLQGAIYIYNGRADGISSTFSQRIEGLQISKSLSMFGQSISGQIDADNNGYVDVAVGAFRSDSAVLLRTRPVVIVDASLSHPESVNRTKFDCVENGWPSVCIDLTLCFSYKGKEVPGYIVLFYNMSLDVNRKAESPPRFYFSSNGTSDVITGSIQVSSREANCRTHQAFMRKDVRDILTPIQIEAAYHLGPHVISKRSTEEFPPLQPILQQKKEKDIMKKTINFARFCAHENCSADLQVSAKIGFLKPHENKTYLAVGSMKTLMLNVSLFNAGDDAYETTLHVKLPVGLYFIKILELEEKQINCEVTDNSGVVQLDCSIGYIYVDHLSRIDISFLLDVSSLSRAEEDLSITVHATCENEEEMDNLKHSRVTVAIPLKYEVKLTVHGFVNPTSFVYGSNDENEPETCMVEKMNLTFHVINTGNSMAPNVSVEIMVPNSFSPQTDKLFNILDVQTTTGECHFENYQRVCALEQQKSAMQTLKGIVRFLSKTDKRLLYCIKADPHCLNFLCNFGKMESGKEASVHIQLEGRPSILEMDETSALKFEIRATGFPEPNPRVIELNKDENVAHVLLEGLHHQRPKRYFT
T1 sequence (P05556 21-728 limits assumed): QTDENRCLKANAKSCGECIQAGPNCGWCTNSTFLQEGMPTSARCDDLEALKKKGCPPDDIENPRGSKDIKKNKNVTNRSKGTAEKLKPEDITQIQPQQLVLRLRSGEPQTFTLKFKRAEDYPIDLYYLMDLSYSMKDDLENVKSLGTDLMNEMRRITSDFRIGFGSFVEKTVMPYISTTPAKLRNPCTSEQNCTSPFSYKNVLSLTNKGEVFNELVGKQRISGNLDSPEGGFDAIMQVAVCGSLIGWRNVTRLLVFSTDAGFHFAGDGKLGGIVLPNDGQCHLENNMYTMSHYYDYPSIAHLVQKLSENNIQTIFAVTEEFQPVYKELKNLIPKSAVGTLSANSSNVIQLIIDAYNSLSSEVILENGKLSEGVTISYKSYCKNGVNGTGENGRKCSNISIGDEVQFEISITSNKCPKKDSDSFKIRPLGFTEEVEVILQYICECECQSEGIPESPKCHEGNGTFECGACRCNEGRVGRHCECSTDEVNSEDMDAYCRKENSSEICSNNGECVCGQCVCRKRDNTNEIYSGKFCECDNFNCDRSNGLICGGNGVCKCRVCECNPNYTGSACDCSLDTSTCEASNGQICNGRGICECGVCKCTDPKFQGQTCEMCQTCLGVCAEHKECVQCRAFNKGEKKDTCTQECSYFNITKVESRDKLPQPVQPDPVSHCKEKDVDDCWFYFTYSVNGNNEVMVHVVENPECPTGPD

Row | Substance | frequency of large current events, α4β1 (α4β1; Modification Tip + Substrate) | frequency of large current events, α4β1 (α4β1; Modification Tip only) | Ratio (selectivity αvβ3 vs α4β1) (αvβ3; Modification Tip + Substrate) | frequency of large current events, αvβ3 (αvβ3; Modification Tip + Substrate) | Ratio (selectivity αvβ3 vs α4β1) (αvβ3; Modification Tip only) | frequency of large current events, αvβ3 (αvβ3; Modification Tip only) | binding process (αVβ3 integrin)
1 | cyclo(RGD[dF]C) [RGD] | 0.19 | 0.21 | 3.1 | 0.57 | 2.6 | 0.55 | almost irreversible
2 | cyclo(RGE[dF]C) [RGE] | 0.25 | 0.28 | 1.2 | 0.31 | 1.3 | 0.36 | –
